Patent US20230129721A1, “STABILIZER FOR RADIOPHARMACEUTICALS AND RADIOPHARMACEUTICAL COMPOSITION COMPRISING THE SAME” (THE ASAN FOUNDATION, priority 2020, published 2023)

Assay: Stability (labeling / radiochemical purity by HPLC) of ^99mTc-labeled radiopharmaceutical-containing preparation under acidic, neutral and basic conditions
Type: physicochemical
Procedure: 2 mL of Tc-99m was added dropwise to a lyophilization vial containing 0.1 mg of GP-104, 15 μg of SnCl2, and 20 μg (165 nmol) of cysteine, and left at room temperature for 10 minutes, and the reaction was terminated by adjusting the pH of the mixture to pH 7 using a NaOH solution. The labeling purity was determined using HPLC (analysis conditions: Luna C18 250×4.6 mm, phosphate buffer:acetonitrile (100:0, 0-5 minutes; 80:20, 5-10 minutes; 80:20, 17 minutes; 100:0, 17.1 minutes; 100:0. 20 minutes), 1.0 mL/min, UV=280 nm).
HCl and NaOH were further added dropwise to the solution of Example 7 to adjust the final pH of the solution, followed by stability evaluation under the acidic (pH 5.5) and basic (pH 8.5) conditions. Then, the labeling purity was determined in the same manner as in Example 7 using HPLC.
2 mL of Tc-99m was added dropwise to a lyophilization vial containing 0.1 mg of radiopharmaceutical GP-104, 15 μg of SnCl2, 10 μg (82.5 nmol) of cysteine, and 22 μg (82.5 nmol) of VB1, and left at room temperature for 10 minutes, and the reaction was terminated by adjusting the pH of the mixture to pH 7 using a NaOH solution. Then, the labeling purity was determined in the same manner as in Example 7 using HPLC.
HCl and NaOH were further added dropwise to the solution of Example 9 to adjust the final pH of the solution, followed by stability evaluation under the acidic (pH 5.5) and basic (pH 8.5) conditions. Then, the labeling purity was determined in the same manner as in Example 7 using HPLC.
2 mL of Tc-99m was added dropwise to a lyophilization vial containing 0.1 mg of GP-104, 15 μg of SnCl2, 10 μg (82.5 nmol) of cysteine, and 17 μg (82.5 nmol) of VB6, and left at room temperature for 10 minutes, and the reaction was terminated by adjusting the pH of the mixture to pH 7 using a NaOH solution. Then, the labeling purity was determined in the same manner as in Example 7 using HPLC.
HCl and NaOH were further added dropwise to the solution of Example 11 to adjust the final pH of the solution, followed by stability evaluation under the acidic (pH 5.5) and basic (pH 8.5) conditions. Then, the labeling purity was determined in the same manner as in Example 7 using HPLC.
2 mL of Tc-99m was added dropwise to a lyophilization vial containing 0.1 mg of GP-105, 15 μg of SnCl2, and 20 μg (165 nmol) of cysteine, and left at room temperature for 10 minutes, and the reaction was terminated by adjusting the pH of the mixture to pH 7 using a NaOH solution. Then, the labeling purity was determined in the same manner as in Example 7 using HPLC.
HCl and NaOH were further added dropwise to the solution of Example 13 to adjust the final pH of the solution, followed by stability evaluation under the acidic (pH 5.5) and basic (pH 8.5) conditions. Then, the labeling purity was determined in the same manner as in Example 7 using HPLC.
2 mL of Tc-99m was added dropwise to a lyophilization vial containing 0.1 mg of GP-105, 15 μg of SnCl2, 10 μg (82.5 nmol) of cysteine, and 22 μg (82.5 nmol) of VB1, and left at room temperature for 10 minutes, and the reaction was terminated by adjusting the pH of the mixture to pH 7 using a NaOH solution. Then, the labeling purity was determined in the same manner as in Example 7 using HPLC.
HCl and NaOH were further added dropwise to the solution of Example 15 to adjust the final pH of the solution, followed by stability evaluation under the acidic (pH 5.5) and basic (pH 8.5) conditions. Then, the labeling purity was determined in the same manner as in Example 7 using HPLC.
2 mL of Tc-99m was added dropwise to a lyophilization vial containing 0.1 mg of GP-105, 15 μg of SnCl2, 10 μg (82.5 nmol) of cysteine, and 17 μg (82.5 nmol) of VB6, and left at room temperature for 10 minutes, and the reaction was terminated by adjusting the pH of the mixture to pH 7 using a NaOH solution. Then, the labeling purity was determined in the same manner as in Example 7 using HPLC. […]

[1] = 10 μg (82.5 nmol) cysteine and 17 μg (82.5 nmol) VB6, pH 5.5, 0 hr
[2] = 10 μg (82.5 nmol) cysteine and 17 μg (82.5 nmol) VB6, pH 5.5, 2 hr
[3] = 10 μg (82.5 nmol) cysteine and 17 μg (82.5 nmol) VB6, pH 5.5, 4 hr
[4] = 10 μg (82.5 nmol) cysteine and 17 μg (82.5 nmol) VB6, pH 7, 0 hr
[5] = 10 μg (82.5 nmol) cysteine and 17 μg (82.5 nmol) VB6, pH 7, 2 hr
[6] = 10 μg (82.5 nmol) cysteine and 17 μg (82.5 nmol) VB6, pH 7, 4 hr
[7] = 10 μg (82.5 nmol) cysteine and 17 μg (82.5 nmol) VB6, pH 8.5, 0 hr
[8] = 10 μg (82.5 nmol) cysteine and 17 μg (82.5 nmol) VB6, pH 8.5, 2 hr
[9] = 10 μg (82.5 nmol) cysteine and 17 μg (82.5 nmol) VB6, pH 8.5, 4 hr
[10] = 10 μg (82.5 nmol) cysteine and 22 μg (82.5 nmol) VB1, pH 5.5, 0 hr
[11] = 10 μg (82.5 nmol) cysteine and 22 μg (82.5 nmol) VB1, pH 5.5, 2 hr
[12] = 10 μg (82.5 nmol) cysteine and 22 μg (82.5 nmol) VB1, pH 5.5, 4 hr
[13] = 10 μg (82.5 nmol) cysteine and 22 μg (82.5 nmol) VB1, pH 7, 0 hr
[14] = 10 μg (82.5 nmol) cysteine and 22 μg (82.5 nmol) VB1, pH 7, 2 hr
[15] = 10 μg (82.5 nmol) cysteine and 22 μg (82.5 nmol) VB1, pH 7, 4 hr
[16] = 10 μg (82.5 nmol) cysteine and 22 μg (82.5 nmol) VB1, pH 8.5, 0 hr
[17] = 10 μg (82.5 nmol) cysteine and 22 μg (82.5 nmol) VB1, pH 8.5, 2 hr
[18] = 10 μg (82.5 nmol) cysteine and 22 μg (82.5 nmol) VB1, pH 8.5, 4 hr
[19] = 20 μg (165 nmol) cysteine, pH 5.5, 0 hr
[20] = 20 μg (165 nmol) cysteine, pH 5.5, 2 hr
[21] = 20 μg (165 nmol) cysteine, pH 5.5, 4 hr
[22] = 20 μg (165 nmol) cysteine, pH 7, 0 hr
[23] = 20 μg (165 nmol) cysteine, pH 7, 2 hr
[24] = 20 μg (165 nmol) cysteine, pH 7, 4 hr
[25] = 20 μg (165 nmol) cysteine, pH 8.5, 0 hr
[26] = 20 μg (165 nmol) cysteine, pH 8.5, 2 hr
[27] = 20 μg (165 nmol) cysteine, pH 8.5, 4 hr

Row | SMILES | radiochemical purity (labeling purity) [1] | radiochemical purity (labeling purity) [2] | radiochemical purity (labeling purity) [3] | radiochemical purity (labeling purity) [4] | radiochemical purity (labeling purity) [5] | radiochemical purity (labeling purity) [6] | radiochemical purity (labeling purity) [7] | radiochemical purity (labeling purity) [8] | radiochemical purity (labeling purity) [9] | radiochemical purity (labeling purity) [10] | radiochemical purity (labeling purity) [11] | radiochemical purity (labeling purity) [12] | radiochemical purity (labeling purity) [13] | radiochemical purity (labeling purity) [14] | radiochemical purity (labeling purity) [15] | radiochemical purity (labeling purity) [16] | radiochemical purity (labeling purity) [17] | radiochemical purity (labeling purity) [18] | radiochemical purity (labeling purity) [19] | radiochemical purity (labeling purity) [20] | further results
1 | O=C(O)C[C@H](NC(=O)[C@@H]1CCCN(C(=O)CCC2CCNCC2)C1)c1cncc(OCCNC(=O)CN(CC(=O)O)CC(=O)O)c1 (99mTc complex, metal not drawn) [GP-105, 2,2′-((2-((2-((5-((S)-2-carboxy-1-((R)-1-(3-(piperidin-4-yl)propanoyl)piperidine-3-carboxamido)ethyl)pyridin-3-yl)oxy)ethyl)amino)-2-oxoethyl)azanediyl)diacetic acid] | 100% | 97.24% | 95.61% | 100% | 98.56% | 98.2% | 100% | 92.21% | 89.62% | 100% | 100% | 98.63% | 100% | 100% | 94.88% | 100% | 94.13% | 90.17% | 100% | 85.49% | radiochemical purity (labeling purity) [21]: 82.11%; radiochemical purity (labeling purity) [22]: 100%; radiochemical purity (labeling purity) [23]: 94.88%; radiochemical purity (labeling purity) [24]: 85.55%; radiochemical purity (labeling purity) [25]: 100%; radiochemical purity (labeling purity) [26]: 50.64%; radiochemical purity (labeling purity) [27]: 23.98%
2 | O=C(O)C[C@H](NC(=O)[C@@H]1CCCN(C(=O)CCC2CCNCC2)C1)c1cncc(OCCNC(=O)CN(CCN(CCN(CC(=O)O)CC(=O)O)CC(=O)O)CC(=O)O)c1 [GP-104, (S)-3-(5-(2-(2-DTPA acetamido)ethoxy)pyridin-3-yl)-3-((R)-1-(3-(piperidin-4-yl)propanoyl)piperidine-3-carboxamido)propanoic acid] | 97.24% | 90.29% | 90.65% | 97.24% | 95.61% | 96.25% | 97.24% | 95.61% | 91.19% | 100% | 92.72% | 91.20% | 100% | 98.63% | 98.18% | 100% | 83.08% | 80.97% | 95.26% | 91.45% | radiochemical purity (labeling purity) [21]: 89.28%; radiochemical purity (labeling purity) [22]: 95.26%; radiochemical purity (labeling purity) [23]: 91.19%; radiochemical purity (labeling purity) [24]: 91.61%; radiochemical purity (labeling purity) [25]: 95.26%; radiochemical purity (labeling purity) [26]: 79.83%; radiochemical purity (labeling purity) [27]: 51.77%
